Experimental data as given in PubChem BioAssay (NCI).
“And” between values parts separate entries of the source, which are not always exact repeats. Equal entries are not always repeated.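 Compound exposure: 48 hours, 5 concentrations, 96-well plates. GI50: concentration for 50% inhibition of growth. TGI denotes the concentration required for complete inhibition of growth.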

Tested on: MDA-MB-468 breast
Test: inhibition of tumour cell growth, NCI panel, 48 h

SMILES | GI50 | TGI
Cn1cc(C[C@@H](N)C(=O)O)c2ccccc21 | > 100000 nM | > 100000 nM
c1ccc(-c2nn(-c3ccccc3)[n+](-c3cccc4ccccc34)n2)cc1 | 265 nM | 1770 nM
COc1c(CNC(=O)CCl)cc2[nH]c(C)cc2c1CNC(=O)CCl | 5940 nM | 25900 nM
CC1=C([Se]CC(OC(=O)[C@@H](CO)NC(=O)OC(C)(C)C)C(=O)NC(C)(C)C)C(=O)c2ccccc2C1=O (stereo not given in full) | 759 nM | 2290 nM
Cc1cc(-c2nc(-c3ccc(OC(F)(F)F)cc3)no2)nn1Cc1ccnc(N2CCN(C3CC3)CC2)c1 | < 10 nM | 5680 nM
C=C1CCC2C3(C)COC(c4ccc(SC)cc4)OC3CCC2(C)C1C/C=C1/C(=O)OCC1O (stereo not given) | 5340 nM | 18300 nM
N#Cc1c(-c2ccc(Cl)cc2)nc(SCc2ccc(F)cc2)nc1N1CCNCC1 | 1470 nM | 2880 nM
COc1cccc(C2C3=C(COC3=O)N(CCO)c3cc4c(cc32)OCCO4)c1 (stereo not given) | 68.4 nM | 1270 nM
N#CN1CCC[C@H]1C(=O)N1CCc2c(-c3[nH]nc4ncccc34)cccc21 | < 10 nM | < 10 nM
COc1cc([C@@H]2c3cc4c(cc3[C@H](O)[C@H]3COC(=O)[C@H]23)OCO4)cc(OC)c1OC | < 10 nM | < 10 nM
C#COc1cccc(Nc2ncnc3ncc(NC(=O)CCl)cc23)c1 | > 35400 nM | > 62500 nM
C/C(=C\CCc1ccoc1)CC/C=C(\C)CCCN1CCC(CO)CC1 | 1700 nM | 4450 nM
CC[C@H](C)n1cc(C)c2c(C(=O)NCc3c(C)cc(C)[nH]c3=O)cc(-c3ccc(N4CCNCC4)nc3)cc21 | 2150 nM and 5090 nM | 7630 nM and 18700 nM
CC(=O)OC[C@]12CC[C@@H]([C@@H](C)C(N)=O)[C@@H]1[C@H]1CC[C@@H]3[C@@]4(C)CC[C@H](OC(C)=O)C(C)(C)[C@@H]4CC[C@@]3(C)[C@]1(C)CC2 | 3960 nM | 15600 nM
COC(=O)Nc1nc2cc3c(cc2s1)OCCO3 | 29200 nM | > 50000 nM
COc1ccc(Cc2cnc(NC(=O)c3sc4ccccc4c3Cl)s2)cc1 | 416 nM | > 100000 nM
O=C1/C(=C\c2coc3ccccc3c2=O)c2ccccc2N1c1c(Cl)cccc1Cl | 2440 nM | 13100 nM
CCOc1ccc(/C=C/[N+](=O)[O-])cc1 | 1970 nM | 3970 nM
N#Cc1cccc(NC(=O)c2oc3ccccc3c2-c2cnn(-c3ccccc3)c2)c1 | 406000 nM | > 500000 nM
CC[C@@H](C(=O)[C@@H](C)[C@@H](O)[C@H](C)[C@@H]1O[C@@H]([C@@H](CC)C(=O)O)CC[C@@H]1C)[C@H]1OC2(C=C[C@@H](O)[C@]3(CC[C@@](C)([C@H]4CC[C@](O)(CC)[C@H](C)O4)O3)O2)[C@H](C)C[C@@H]1C (stereo not given in full) | 150 nM | 1950 nM
C#CCNC(=O)CC[C@]1(C)[C@H]2CC[C@@H]3[C@@H]([C@@](C)(O)CCC=C(C)C)CC[C@@]3(C)[C@]2(C)CC[C@H]1C(=C)C | 33600 nM | > 100000 nM
CNC(C)C(=O)N[C@H](C(=O)N1CCC[C@@H]1CN(CCc1ccccc1)C(=O)C(F)(F)F)[C@H](C)OCC#CC#CCO[C@H](C)[C@H](NC(=O)[C@H](C)NC)C(=O)N1CCC[C@H]1CN(CCc1ccccc1)C(=O)C(F)(F)F (stereo not given in full) | < 10 nM | 22.1 nM
N#Cc1c(NC(=O)CN2CCOCC2)sc2c1CCCC2 | > 21700 nM | > 25000 nM
C=CCN(/C=C1\C(=O)O[C@H](COC)[C@@]2(C)C1=C(O)C(=O)C1=C2[C@H](OC(C)=O)C[C@]2(C)C(=O)CC[C@@H]12)CC=C | 77.8 nM | 649 nM
CCO/C=N/C1=C(C#N)C(c2ccc(F)cc2)c2sc3c(CC)cccc3c2O1 (stereo not given) | 421 nM | 16000 nM
Nc1ccccc1NC(=O)c1ccc(CN2CCC/C(=C\c3cccc(Cl)c3)C2=O)cc1 | 63.6 nM | 5900 nM
COc1ccc(/C=C\c2cc(OC)c(OC)c(OC)c2)cc1OC(=O)c1cccc(Cn2cc(CCOC(=O)c3cccc(Cn4nnc5c4C(=O)c4ccccc4C5=O)c3)nn2)c1 | < 13.8 nM | 
Oc1cc(O)c2c(=S)cc(-c3ccc(Cl)cc3)oc2c1 | 260 nM | 3100 nM
